Consider six molecules from PMC9070634 (Cell, 2021).

Data set [1] has as its target T1, BcPycTIR (Burkholderia cepacia, UniProt A0A0J5WTU0).
T1 sequence (A0A0J5WTU0 1-303): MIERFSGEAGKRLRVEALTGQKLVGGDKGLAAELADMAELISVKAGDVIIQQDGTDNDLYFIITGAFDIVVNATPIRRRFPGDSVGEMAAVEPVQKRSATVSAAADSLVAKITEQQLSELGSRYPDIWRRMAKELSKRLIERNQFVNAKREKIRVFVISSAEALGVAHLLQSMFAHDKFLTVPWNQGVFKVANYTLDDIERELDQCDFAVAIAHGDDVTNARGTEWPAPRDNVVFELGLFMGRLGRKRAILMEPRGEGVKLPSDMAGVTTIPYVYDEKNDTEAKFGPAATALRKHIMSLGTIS
Put plainly: fluorescence plate reader, initial rates. Conditions: 500 uM substrate, 1 uM protein, cUMP as activator, pH 7.5, 100 mM KCl. The data set is classed as biochemical.

For a further data set, the target named is PaPycC (Pseudomonas aeruginosa, UniProt P0DV40). As to the kind of experiment: thin-layer chromatography with alpha-32P-UTP. The data set is classed as biochemical. Conditions: labelled compound (trace); 10 mM MgCl2, 1 mM MnCl2, pH 8.5, 37 C.
The target of data set [2] is T1, BcPycTIR. Put plainly: HPLC of NAD+ cleavage. The data set is classed as biochemical. Conditions: 500 uM NAD+, 500 nM protein, 250 nM cUMP as activator, 25 C, 1 h.
The next data set addresses T2, BcPycC (Burkholderia cepacia, UniProt A0A0J5ZXG5).
T2 sequence (A0A0J5ZXG5 1-229 limits assumed): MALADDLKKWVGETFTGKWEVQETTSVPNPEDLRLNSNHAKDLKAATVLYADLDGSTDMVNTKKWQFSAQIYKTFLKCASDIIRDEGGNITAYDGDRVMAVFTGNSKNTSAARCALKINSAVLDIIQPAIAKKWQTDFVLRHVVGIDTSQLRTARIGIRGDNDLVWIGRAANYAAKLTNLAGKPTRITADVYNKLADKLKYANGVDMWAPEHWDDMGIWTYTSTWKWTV
Put plainly: HPLC. Conditions: 10 mM MgCl2, 1 mM MnCl2, 37 C. The data set is classed as biochemical.

The data set “crystal structure” deals with the molecule itself. As to the kind of experiment: crystal structure.
Data set [3] deals with the molecule itself. As to the kind of experiment: negative stain electron microscopy.

Sequence of PaPycC (P0DV40 whole entry): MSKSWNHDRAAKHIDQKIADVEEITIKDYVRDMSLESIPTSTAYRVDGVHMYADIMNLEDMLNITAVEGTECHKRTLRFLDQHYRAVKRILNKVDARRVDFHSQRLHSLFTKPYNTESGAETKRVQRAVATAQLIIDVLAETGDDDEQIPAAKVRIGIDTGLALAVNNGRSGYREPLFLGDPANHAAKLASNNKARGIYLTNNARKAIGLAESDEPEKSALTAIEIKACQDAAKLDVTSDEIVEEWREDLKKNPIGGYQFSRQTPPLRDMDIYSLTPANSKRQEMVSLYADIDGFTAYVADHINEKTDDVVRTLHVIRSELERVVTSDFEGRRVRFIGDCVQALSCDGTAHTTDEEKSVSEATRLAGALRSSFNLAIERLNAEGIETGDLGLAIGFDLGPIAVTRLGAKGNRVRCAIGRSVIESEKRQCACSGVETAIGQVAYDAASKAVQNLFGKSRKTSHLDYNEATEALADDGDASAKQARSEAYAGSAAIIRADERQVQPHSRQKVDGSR

Regarding `NC(=O)c1ccc[n+]([C@@H]2O[C@H](COP(=O)(O)OP(=O)(O)OC[C@H]3O[C@@H](n4cnc5c4ncn4ccnc54)[C@H](O)[C@@H]3O)[C@@H](O)[C@H]2O)c1` [ε-NAD^+], the “fluorescence plate reader, initial rates” value at BcPycTIR [1] is “NAD^+ cleavage activity of BcPycTIR using the fluorescent substrate ε-NAD^+”.

For the molecule `O=c1ccn([C@@H]2O[C@H](COP(=O)(O)OP(=O)(O)OP(=O)(O)O)[C@@H](O)[C@H]2O)c(=O)[nH]1` [UTP], on PaPycC, the “thin-layer chromatography with alpha-32P-UTP” value is “demonstrated that PaPycC is an active uridylate cyclase”.

Regarding `NC(=O)c1ccc[n+]([C@@H]2O[C@H](COP(=O)(O)OP(=O)(O)OC[C@H]3O[C@@H](n4cnc5c(N)ncnc54)[C@H](O)[C@@H]3O)[C@@H](O)[C@H]2O)c1` [NAD^+], the “HPLC of NAD+ cleavage” value at BcPycTIR [2] is “Incubation of BcPycTIR with cUMP triggered robust NADase activity”.

On to `O=c1ccn([C@@H]2O[C@@H]3COP(=O)(O)O[C@H]3[C@H]2O)c(=O)[nH]1` [cUMP], for which the “HPLC; MSMS against standard” value on BcPycC was “MSMS fragmentation spectra of a cUMP standard (bottom) and the BcPycC cyclase product (top)”.

B1: clade B uridylate cyclase from Burkholderia cepacia LK29 (BcPycC) (enzyme)
chain: ALADDLKKWVGETFTGKWEVQETTSVPNPEDLRLNSNHAKDLKAATVLYADLDGSTDMVNTKKWQFSAQIYKTFLKCASDIIRDEGGNITAYDGDRVMAVFTGNSKNTSAARCALKINSAVLDIIQPAIAKKWQTDFVLRHVVGIDTSQLRTARIGIRGDNDLVWIGRAANYAAKLTNLAGKPTRITADVYNKLADKLKYANGVDMWAPEHWDDMGIWTYTSTWKWTV
Regarding B1, in “crystal structure”, the binding result is recorded as “binds”.

B2: TIR-domain effector protein from Burkholderia cepacia LK29 (BcPycTIR) (enzyme)
chain: MIERFSGEAGKRLRVEALTGQKLVGGDKGLAAELADMAELISVKAGDVIIQQDGTDNDLYFIITGAFDIVVNATPIRRRFPGDSVGEMAAVEPVQKRSATVSAAADSLVAKITEQQLSELGSRYPDIWRRMAKELSKRLIERNQFVNAKREKIRVFVISSAEALGVAHLLQSMFAHDKFLTVPWNQGVFKVANYTLDDIERELDQCDFAVAIAHGDDVTNARGTEWPAPRDNVVFELGLFMGRLGRKRAILMEPRGEGVKLPSDMAGVTTIPYVYDEKNDTEAKFGPAATALRKHIMSLGTIS
Consider B2, for which the binding result in data set [3] was “binds”.
